Measurements published in ChEMBL document CHEMBL1255224, “Design and synthesis of prolylcarboxypeptidase (PrCP) inhibitors to validate PrCP as a potential target for obesity” (J Med Chem, 2010).

Legend:
[1] = biological target: T1, Lysosomal Pro-X carboxypeptidase (Mus musculus, UniProt Q7TMR0); experiment: Inhibition of mouse PrCP by FRET
T1 sequence (Q7TMR0 whole entry): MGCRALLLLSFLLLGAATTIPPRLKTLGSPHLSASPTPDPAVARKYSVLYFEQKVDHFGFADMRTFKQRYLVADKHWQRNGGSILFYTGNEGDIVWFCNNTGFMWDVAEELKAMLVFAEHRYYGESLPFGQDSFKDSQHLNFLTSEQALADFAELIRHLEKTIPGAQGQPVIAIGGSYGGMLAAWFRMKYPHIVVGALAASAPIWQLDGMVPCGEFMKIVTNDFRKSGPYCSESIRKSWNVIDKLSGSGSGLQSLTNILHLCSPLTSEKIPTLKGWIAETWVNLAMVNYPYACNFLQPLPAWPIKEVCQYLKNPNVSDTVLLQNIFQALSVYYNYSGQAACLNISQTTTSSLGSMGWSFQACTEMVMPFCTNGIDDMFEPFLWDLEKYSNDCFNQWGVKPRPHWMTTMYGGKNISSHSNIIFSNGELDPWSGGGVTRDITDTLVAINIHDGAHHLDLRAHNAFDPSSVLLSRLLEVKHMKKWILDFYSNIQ

[2] = Clearance in mouse; format: ADME, organism-based; settings: in vivo
[3] = Volume of distribution in mouse; format: ADME, organism-based; settings: in vivo
[4] = Half life in mouse; format: ADME, organism-based; settings: in vivo
[5] = Oral bioavailability in mouse; format: ADME, organism-based; settings: in vivo
[6] = biological target: T1, Lysosomal Pro-X carboxypeptidase; experiment: Inhibition of mouse PrCP by FRET in presence of 1% mouse serum albumin
[7] = system: Mus musculus; experiment: Antiobesity activity against C57BL/6NT mouse overexpressing PrCP assessed as reduction in body weight at 100 mg/kg, po; format: functional; parameters: scale not given: the % may be the effect or the level left
[8] = system: Mus musculus; experiment: Antiobesity activity against C57BL/6NT mouse PrCP knock out model assessed as reduction in body weight at 100 mg/kg, po for 5 days; format: functional; parameters: scale not given: the % may be the effect or the level left
[9] = system: Blood; experiment: Drug level in C57BL/6NT wild type mouse blood at 100 mg/kg, po; format: ADME, organism-based; parameters: dose 100 mg/kg, route oral; settings: in vivo, read-out: Activity
[10] = system: Brain; experiment: Drug level in C57BL/6NT wild type mouse brain at 100 mg/kg, po; format: ADME, organism-based; parameters: dose 100 mg/kg, route oral; settings: in vivo, read-out: Activity
[11] = system: Blood; experiment: Drug level in C57BL/6NT PrCP knock out mouse blood at 100 mg/kg, po; format: ADME, organism-based; parameters: dose 100 mg/kg, route oral; settings: in vivo, read-out: Activity
[12] = system: Brain; experiment: Drug level in C57BL/6NT PrCP knock out mouse brain at 100 mg/kg, po; format: ADME, organism-based; parameters: dose 100 mg/kg, route oral; settings: in vivo, read-out: Activity

| SMILES | IC50 [1] [nM] | clearance [2] [mL/min/kg] | Vd [3] [L/kg] | half-life [4] [h] | bioavailability [5] [%] | IC50 [6] [nM] | Activity [7] [%] | Activity [8] [%] | concentration [9] [nM] | concentration [10] [nM] | concentration [11] [nM] | concentration [12] [nM] |
| --- | --- | --- | --- | --- | --- | --- | --- | --- | --- | --- | --- | --- |
| O=C(CCc1ccc(-c2ccccc2)cc1)N1CCC[C@H]1c1ncc(-c2cccc(F)c2)[nH]1 | 871 | 75 | 4.6 | 0.8 | 5 | – | – | – | – | – | – | – |
| CC(C)(Cc1ccc(-c2ccccc2)cc1)C(=O)N1CCC[C@H]1c1nc(-c2cccc(F)c2)c[nH]1 | – | 92 | 8.8 | 2.3 | 5 | – | – | – | – | – | – | – |
| Cc1ccccc1-c1c[nH]c([C@@H]2CCCN2C(=O)COc2ccc(-c3ccccc3)cc2)n1 | – | 54 | 4 | 3.4 | 49 | – | – | – | – | – | – | – |
| CC(C)(Cc1ccc(-c2cccc(Cl)c2Cl)cc1)C(=O)N1CC(F)(F)C[C@H]1c1ncc(-c2cccc(Br)c2)[nH]1 | – | 15 | 4 | 9.6 | 5 | – | – | – | – | – | – | – |
| Cc1cccc2[nH]c([C@@H]3[C@@H]4C[C@@H]4CN3C(=O)COc3ccc(-c4ccccc4)cc3)nc12 | – | 41 | 2.3 | 0.6 | 20 | – | – | – | – | – | – | – |
| N#Cc1cccc(-c2ccc(CCC(=O)N3C[C@H](O)C[C@H]3c3nc(-c4cccc(Cl)c4)c[nH]3)cc2)c1 | – | 82 | 2.2 | 0.6 | 1 | – | – | – | – | – | – | – |
| CC(C)(N)C(=O)N[C@@H](Cc1ccc(-c2ccccc2)cc1)C(=O)N1CCC[C@H]1c1nc2cc(Cl)c(Cl)cc2[nH]1 | 15 | 12 | 2.7 | 2.8 | 31 | 789 | – | – | – | – | – | – |
| CC(C)(N)C(=O)N[C@@H](Cc1ccc(Cl)cc1)C(=O)N1CCC[C@H]1c1nc2cc(Cl)c(Cl)cc2[nH]1 | – | 7 | 2.6 | 3 | 100 | – | – | – | – | – | – | – |
| COc1ccc(C[C@H](NC(=O)C(C)(C)N)C(=O)N2CC[C@H]2c2nc3cc(Cl)c(Cl)cc3[nH]2)cc1 | 251 | 25 | 2.2 | 1.4 | 33 | 3320 | – | – | – | – | – | – |
| CC(C)(O)C(=O)N[C@@H](Cc1ccc(-c2ccccc2)cc1)C(=O)N1CCC[C@H]1c1nc2cc(F)c(F)cc2[nH]1 | – | 39 | 1.5 | 0.5 | 9 | – | – | – | – | – | – | – |
| CC(C)(CN)C(=O)N[C@@H](Cc1ccc(-c2ccccc2)cc1)C(=O)N1CCC[C@H]1c1nc2cc(Cl)c(Cl)cc2[nH]1 | – | 23 | 7.9 | 4.3 | 0 | – | – | – | – | – | – | – |
| CC(C)(N)CC(=O)N[C@@H](Cc1ccc(-c2ccccc2)cc1)C(=O)N1CCC[C@H]1c1nc2cc(Cl)c(Cl)cc2[nH]1 | – | 14 | 6.8 | 5.2 | 0 | – | – | – | – | – | – | – |
| CC(C)(N)C(=O)N[C@@H](Cc1ccc(-c2ccccc2)cc1)C(=O)N1CCC[C@H]1c1ncc(C(C)(C)C)[nH]1 | 41 | 11 | 11 | 15 | 6 | 17 | – | – | – | – | – | – |
| CC(C)(O)C(=O)N[C@@H](Cc1ccc(-c2ccccc2)cc1)C(=O)N1CCC[C@H]1c1ncc(C(C)(C)C)[nH]1 | 16 | 117 | 2.9 | 0.4 | 0 | 15 | – | – | – | – | – | – |
| C[C@@H](c1ccc(-c2ccccc2)cc1)[C@H](NC(=O)C(C)(C)N)C(=O)N1CCC[C@H]1c1nc2cc(Cl)c(Cl)cc2[nH]1 | 2 | 23 | 4.4 | 2.3 | 13 | 8 | 4.9 | 1.1 | 380 | 50 | 430 | 40 |
| C[C@@H](c1ccccc1)[C@H](NC(=O)C(C)(C)N)C(=O)N1CCC[C@H]1c1nc2cc(Cl)c(Cl)cc2[nH]1 | 32 | 17 | 1.5 | 1.5 | 41 | 60 | – | – | – | – | – | – |
| C[C@@H](c1ccc(-c2ccc(F)cc2)cc1)[C@H](NC(=O)C(C)(C)O)C(=O)N1CCC[C@H]1c1nc2cc(Cl)c(Cl)cc2[nH]1 | – | 23 | 1.2 | 0.8 | 12 | – | – | – | – | – | – | – |
| C[C@@H](c1ccccc1)[C@H](NC(=O)C(C)(C)O)C(=O)N1CCC[C@H]1c1nc2cc(Cl)c(Cl)cc2[nH]1 | 29 | 72 | 2.4 | 0.5 | 4 | 98 | – | – | – | – | – | – |
| Cn1cc(-c2ccc(C[C@H](NC(=O)C(C)(C)N)C(=O)N3CCC[C@H]3c3nc4cc(Cl)c(Cl)cc4[nH]3)cc2)ccc1=O | – | 70 | 14 | 2.6 | 0 | – | – | – | – | – | – | – |
